{"source": "paper PMC8229335", "about": "“Screening of Novel Laccase Producers—Isolation and Characterization of Cold-Adapted Laccase from Kabatiella bupleuri G3 Capable of Synthetic Dye Decolorization” (Biomolecules, 2021)", "biological_target": "T1, K. bupleuri laccase G3 (Aureobasidium bupleuri, UniProt A0A8F5DNG6)", "T1 construct": "about 70-75 kDa by SDS-PAGE", "T1 sequence (A0A8F5DNG6 21-645)": "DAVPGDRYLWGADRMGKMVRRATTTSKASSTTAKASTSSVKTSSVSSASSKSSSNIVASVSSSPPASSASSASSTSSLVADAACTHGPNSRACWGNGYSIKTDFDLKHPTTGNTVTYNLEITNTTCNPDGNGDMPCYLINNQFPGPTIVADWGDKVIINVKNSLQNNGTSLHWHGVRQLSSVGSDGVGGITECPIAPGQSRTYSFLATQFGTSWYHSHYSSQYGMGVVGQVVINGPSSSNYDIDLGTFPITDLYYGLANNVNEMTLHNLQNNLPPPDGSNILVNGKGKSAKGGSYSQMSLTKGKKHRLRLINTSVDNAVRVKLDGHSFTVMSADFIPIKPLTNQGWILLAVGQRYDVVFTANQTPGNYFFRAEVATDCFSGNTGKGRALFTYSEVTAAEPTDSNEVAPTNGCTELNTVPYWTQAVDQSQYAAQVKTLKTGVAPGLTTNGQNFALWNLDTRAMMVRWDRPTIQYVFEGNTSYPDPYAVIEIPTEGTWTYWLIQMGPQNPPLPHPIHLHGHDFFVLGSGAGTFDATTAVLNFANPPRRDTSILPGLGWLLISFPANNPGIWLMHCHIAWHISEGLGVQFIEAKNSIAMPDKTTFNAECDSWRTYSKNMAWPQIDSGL", "test": "spectrophotometric oxidation at […] nm; Lineweaver-Burk", "format": "biochemical", "conditions": "pH 3.5, 30 °C; partially purified native enzyme; read-out: apparent Km"}
{"smiles": "CCn1c(=NN=c2sc3cc(S(=O)(=O)O)ccc3n2CC)sc2cc(S(=O)(=O)O)ccc21", "note": "[ABTS, 2,2’-azino-bis(3-ethylbenzothiazoline-6-sulfonic acid)]", "values": [{"measurement": "Km", "result": 584, "unit": "µM"}]}
